In ChEMBL document CHEMBL4311972, “Discovery of a benzothiophene-flavonol halting miltefosine and antimonial drug resistance in Leishmania parasites through the application of medicinal chemistry, screening and genomics” (Eur J Med Chem, 2019):

How the values were obtained:
Leishmania infantum = experiment: Antileishmanial activity against luciferase expressing intracellular amastigote stage of Leishmania infantum infected in human THP1 cells assessed as parasite growth inhibition measured after 48 to 72 hrs by steady-glo luciferase assay; type: functional, organism-based; details: Leishmania infantum, THP-1; read-out: EC50
Trypanosoma brucei = experiment: Antitrypanosomal activity against Trypanosoma brucei bloodstream form assessed as parasite growth inhibition incubated for 72 hrs by resazurin dye based assay; type: functional, organism-based; details: Trypanosoma brucei, 72 h; read-out: EC50
[1] = Cytotoxicity against human THP1 cells by MTT assay; type: cell-based, THP-1
[2] = Selectivity index, ratio of CC50 for human THP1 cells to EC50 for luciferase expressing intracellular amastigote stage of Leishmania infantum infected in human THP1 cells; type: toxicity, cell-based; details: read-out: Ratio CC50/EC50
hERG (KCNH2) = hERG (KCNH2) (Homo sapiens, UniProt Q12809); experiment: Inhibition of human ERG at 10 uM incubated for 2 hrs by fluorescence polarization assay relative to control
Chain of hERG (KCNH2) (Q12809 whole entry): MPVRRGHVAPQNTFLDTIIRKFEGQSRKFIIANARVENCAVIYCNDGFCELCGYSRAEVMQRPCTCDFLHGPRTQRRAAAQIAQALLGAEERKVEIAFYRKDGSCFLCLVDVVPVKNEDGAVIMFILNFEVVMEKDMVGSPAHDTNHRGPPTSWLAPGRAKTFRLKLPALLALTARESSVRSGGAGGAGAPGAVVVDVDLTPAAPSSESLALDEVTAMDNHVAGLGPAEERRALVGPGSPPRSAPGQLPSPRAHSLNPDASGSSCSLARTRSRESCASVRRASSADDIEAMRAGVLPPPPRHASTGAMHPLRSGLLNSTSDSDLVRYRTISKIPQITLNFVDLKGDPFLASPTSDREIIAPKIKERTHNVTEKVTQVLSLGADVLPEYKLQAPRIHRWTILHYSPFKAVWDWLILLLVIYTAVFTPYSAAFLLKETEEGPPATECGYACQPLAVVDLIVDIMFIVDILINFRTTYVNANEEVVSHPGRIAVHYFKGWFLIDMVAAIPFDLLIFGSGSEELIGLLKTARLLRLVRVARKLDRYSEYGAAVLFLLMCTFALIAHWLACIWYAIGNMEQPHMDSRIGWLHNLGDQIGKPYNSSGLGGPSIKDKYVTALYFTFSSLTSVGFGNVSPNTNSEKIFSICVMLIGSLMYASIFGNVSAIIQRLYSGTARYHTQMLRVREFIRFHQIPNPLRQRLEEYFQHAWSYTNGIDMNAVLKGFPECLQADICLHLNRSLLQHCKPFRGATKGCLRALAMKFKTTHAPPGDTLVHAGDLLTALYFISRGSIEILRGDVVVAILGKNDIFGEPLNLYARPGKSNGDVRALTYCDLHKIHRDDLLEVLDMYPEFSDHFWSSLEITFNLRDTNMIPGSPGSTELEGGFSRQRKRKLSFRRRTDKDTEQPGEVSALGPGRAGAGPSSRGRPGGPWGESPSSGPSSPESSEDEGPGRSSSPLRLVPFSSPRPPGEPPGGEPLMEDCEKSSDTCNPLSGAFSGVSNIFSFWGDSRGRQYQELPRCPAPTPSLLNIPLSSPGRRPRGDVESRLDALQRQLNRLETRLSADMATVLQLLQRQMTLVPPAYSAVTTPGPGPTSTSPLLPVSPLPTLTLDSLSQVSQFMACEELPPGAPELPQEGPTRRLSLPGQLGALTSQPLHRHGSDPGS

CYP1A2 = target: T1, CYP1A2 (Homo sapiens, UniProt P05177); experiment: Inhibition of human microsomal CYP1A2 expressed in baculovirus infected insect cells at 10 uM using luciferin-1A2 as substrate preincubated with enzyme/substrate mixture for 30 mins followed by further incubation with NADPH for 30 mins by CYP450 luciferase Glo assay relative to control; type: ADME; details: probe luciferin-1A2
T1 sequence (P05177 whole entry): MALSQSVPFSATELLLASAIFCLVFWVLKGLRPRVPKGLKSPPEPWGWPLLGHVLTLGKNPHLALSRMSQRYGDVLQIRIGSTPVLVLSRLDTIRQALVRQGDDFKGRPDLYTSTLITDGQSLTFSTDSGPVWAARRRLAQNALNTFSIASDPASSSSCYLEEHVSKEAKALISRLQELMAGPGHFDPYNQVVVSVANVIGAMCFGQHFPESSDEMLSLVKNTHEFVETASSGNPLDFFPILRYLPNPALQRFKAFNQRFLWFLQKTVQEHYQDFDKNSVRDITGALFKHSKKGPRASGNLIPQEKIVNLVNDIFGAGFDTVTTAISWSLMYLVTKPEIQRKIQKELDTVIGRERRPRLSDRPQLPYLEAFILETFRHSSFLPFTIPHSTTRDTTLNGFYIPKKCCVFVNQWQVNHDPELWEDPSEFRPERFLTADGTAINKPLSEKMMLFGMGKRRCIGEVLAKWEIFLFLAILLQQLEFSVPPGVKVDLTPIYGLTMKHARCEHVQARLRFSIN

CYP2C9 = CYP2C9 (Homo sapiens, UniProt P11712); experiment: Inhibition of human microsomal CYP2C9 expressed in baculovirus infected insect cells at 10 uM using luciferin-H as substrate preincubated with enzyme/substrate mixture for 30 mins followed by further incubation with NADPH for 30 mins by CYP450 luciferase Glo assay relative to control; type: ADME; details: probe luciferin-H
Chain of CYP2C9 (P11712 whole entry): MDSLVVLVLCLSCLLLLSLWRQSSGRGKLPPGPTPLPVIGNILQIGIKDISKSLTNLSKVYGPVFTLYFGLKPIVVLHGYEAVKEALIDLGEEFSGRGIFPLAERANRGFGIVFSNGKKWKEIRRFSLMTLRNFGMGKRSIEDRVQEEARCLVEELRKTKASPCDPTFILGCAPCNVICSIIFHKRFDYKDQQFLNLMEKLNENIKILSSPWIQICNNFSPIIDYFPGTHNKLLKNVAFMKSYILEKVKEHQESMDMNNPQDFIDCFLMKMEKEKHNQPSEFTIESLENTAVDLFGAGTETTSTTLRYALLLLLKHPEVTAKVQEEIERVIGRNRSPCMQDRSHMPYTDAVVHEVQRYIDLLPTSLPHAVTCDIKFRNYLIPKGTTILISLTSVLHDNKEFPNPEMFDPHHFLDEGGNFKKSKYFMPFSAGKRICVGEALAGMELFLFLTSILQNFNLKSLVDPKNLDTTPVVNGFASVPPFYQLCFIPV

CYP2C19 = CYP2C19 (Homo sapiens, UniProt P33261); experiment: Inhibition of human microsomal CYP2C19 expressed in baculovirus infected insect cells at 10 uM using luciferin-H EGE as substrate preincubated with enzyme/substrate mixture for 30 mins followed by further incubation with NADPH for 30 mins by CYP450 luciferase Glo assay relative to control; type: ADME; details: probe luciferin-H EGE
Chain of CYP2C19 (P33261 whole entry): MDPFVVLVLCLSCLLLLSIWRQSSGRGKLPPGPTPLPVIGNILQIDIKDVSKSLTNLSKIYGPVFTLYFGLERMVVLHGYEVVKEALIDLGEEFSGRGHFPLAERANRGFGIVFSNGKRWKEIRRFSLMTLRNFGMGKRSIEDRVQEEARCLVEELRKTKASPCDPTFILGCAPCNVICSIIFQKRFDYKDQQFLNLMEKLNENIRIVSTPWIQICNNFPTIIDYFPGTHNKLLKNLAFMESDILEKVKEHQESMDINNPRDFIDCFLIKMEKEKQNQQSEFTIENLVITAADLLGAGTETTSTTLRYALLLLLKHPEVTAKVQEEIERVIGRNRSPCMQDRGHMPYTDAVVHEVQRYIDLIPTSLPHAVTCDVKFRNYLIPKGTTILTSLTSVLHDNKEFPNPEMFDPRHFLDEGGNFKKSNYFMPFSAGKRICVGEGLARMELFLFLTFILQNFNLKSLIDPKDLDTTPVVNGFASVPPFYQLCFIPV

CYP2D6 = CYP2D6 (Homo sapiens, UniProt P10635); experiment: Inhibition of human microsomal CYP2D6 expressed in baculovirus infected insect cells at 10 uM using luciferin-ME as substrate preincubated with enzyme/substrate mixture for 30 mins followed by further incubation with NADPH for 30 mins by CYP450 luciferase Glo assay relative to control; type: ADME; details: probe luciferin-ME
Chain of CYP2D6 (P10635 whole entry): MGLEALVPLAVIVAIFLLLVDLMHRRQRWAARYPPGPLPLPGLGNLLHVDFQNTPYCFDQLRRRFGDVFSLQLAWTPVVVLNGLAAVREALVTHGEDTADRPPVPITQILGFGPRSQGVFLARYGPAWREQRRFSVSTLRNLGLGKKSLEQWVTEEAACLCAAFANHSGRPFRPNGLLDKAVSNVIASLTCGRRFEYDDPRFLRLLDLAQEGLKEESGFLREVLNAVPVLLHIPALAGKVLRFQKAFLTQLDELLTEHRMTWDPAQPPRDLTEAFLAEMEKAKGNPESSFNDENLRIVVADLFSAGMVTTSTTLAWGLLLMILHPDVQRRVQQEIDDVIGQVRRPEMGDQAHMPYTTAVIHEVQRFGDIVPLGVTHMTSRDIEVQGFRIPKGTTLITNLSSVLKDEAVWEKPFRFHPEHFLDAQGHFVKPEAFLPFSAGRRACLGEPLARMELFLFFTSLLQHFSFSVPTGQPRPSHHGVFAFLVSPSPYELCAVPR

CYP3A4 = CYP3A4 (Homo sapiens, UniProt P08684); experiment: Inhibition of human microsomal CYP3A4 expressed in baculovirus infected insect cells at 10 uM using luciferin-IPA as substrate preincubated with enzyme/substrate mixture for 30 mins followed by further incubation with NADPH for 30 mins by CYP450 luciferase Glo assay relative to control; type: ADME; details: probe luciferin-IPA
Chain of CYP3A4 (P08684 whole entry): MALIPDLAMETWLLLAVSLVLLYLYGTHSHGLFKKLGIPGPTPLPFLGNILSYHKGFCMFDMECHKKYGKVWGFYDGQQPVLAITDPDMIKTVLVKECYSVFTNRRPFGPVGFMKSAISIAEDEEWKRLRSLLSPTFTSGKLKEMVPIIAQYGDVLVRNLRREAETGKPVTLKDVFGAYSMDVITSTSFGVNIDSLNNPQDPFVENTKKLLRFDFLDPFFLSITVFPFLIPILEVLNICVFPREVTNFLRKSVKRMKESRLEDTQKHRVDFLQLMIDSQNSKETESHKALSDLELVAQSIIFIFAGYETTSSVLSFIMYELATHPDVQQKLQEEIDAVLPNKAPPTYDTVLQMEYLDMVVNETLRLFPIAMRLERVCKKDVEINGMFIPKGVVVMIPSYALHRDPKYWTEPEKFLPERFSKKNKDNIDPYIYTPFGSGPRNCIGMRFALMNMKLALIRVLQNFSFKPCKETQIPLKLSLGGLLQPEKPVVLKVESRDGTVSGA

[3] = Cytotoxicity against human A549 cells assessed as cell growth at […] incubated for 48 hrs by Celltiter-Glo luminescence assay relative to control; type: cell-based; design: dose or concentration left out as unconfirmed; details: read-out: Activity
786-0 = experiment: Mitochondrial toxicity in human 786-0 cells at 10 uM incubated with compound for 6 hrs followed by incubation with MitoTracker Red chloromethyl-X-rosamine dye for 45 mins by imaging analysis; type: cell-based; details: 786-0, 6 h
[4] = Selectivity index, ratio of CC50 for human THP1 cells to EC50 for Trypanosoma brucei bloodstream form; type: toxicity; details: read-out: Ratio CC50/EC50

| Structure (SMILES) | EC50 (Leishmania infantum) [µM] | EC50 (Trypanosoma brucei) [µM] | CC50 [1] [µM] | selectivity ratio [2] | inhibition at 2 h, 10 µM (hERG (KCNH2)) [%] | inhibition at 0.5 h, 10 µM (CYP1A2) [%] | inhibition at 0.5 h, 10 µM (CYP2C9) [%] | inhibition at 0.5 h, 10 µM (CYP2C19) [%] | inhibition at 0.5 h, 10 µM (CYP2D6) [%] | inhibition at 0.5 h, 10 µM (CYP3A4) [%] | viability at 48 h [3] [%] | Activity (786-0) [%] | selectivity ratio [4] |
| --- | --- | --- | --- | --- | --- | --- | --- | --- | --- | --- | --- | --- | --- |
| O=c1c(O)c(-c2csc3ccccc23)oc2ccc(Br)cc12 | 2.7 | 1.5 | 25 to 50 | 9 | -60.1 | 78 | 25.3 | 24.3 | 27.5 | -6.12 | 119 | -22.7 | – |
| COc1ccc2oc(-c3csc4ccccc34)c(OC(C)=O)c(=O)c2c1 | 2.1 | 1.3 | 12.5 to 25 | 6 | -30 | 90.7 | -229 | 69.6 | 30.8 | 42 | 47.3 | -27.27 | – |
| CCCCC(=O)Oc1c(-c2csc3ccccc23)oc2ccc(OC)cc2c1=O | 2.4 | 1.3 | 12.5 to 25 | 5 | 1.12 | 83.3 | 48.3 | 33.9 | 29.3 | 61.8 | 12.4 | 0.75 | – |
| O=c1c(O)c(-c2csc3ccccc23)oc2ccc(F)cc12 | 6 | 1.5 | 25 to 50 | 4 | -29.6 | 86.4 | 25.4 | 26 | 16.8 | 11.5 | 99.1 | -23.6 | – |
| O=c1c(O)c(-c2csc3ccccc23)oc2ccc(Cl)cc12 | 2.7 | 2.1 | 12.5 to 25 | 5 | -14 | 84.7 | 28.6 | 12 | 16.2 | 1.36 | 126 | -21.98 | – |
| COc1ccc2c(=O)c(O)c(-c3sccc3C)oc2c1 | – | 4.9 | 12.5 to 25 | – | -3.84 | 108 | 45.5 | 35.2 | 9.1 | 79.4 | 65 | -8.17 | 3 |
| COc1ccc2c(=O)c(O)c(-c3cc(C)cs3)oc2c1 | – | 3 | 25 to 50 | – | 5.93 | 103 | 59.6 | 77.9 | 33.6 | 12.5 | 80.9 | 0.01 | 8 |
| COc1ccc2oc(-c3cccc(-c4ccc5c(c4)OCO5)c3)c(O)c(=O)c2c1 | – | 3.9 | 25 to 50 | – | 0.34 | 61.8 | 25.8 | 24.5 | 21.9 | 44.6 | 30.5 | -1.63 | 6 |
